System: rat aortic rings
Test: Rat aortic angiogenesis assay
Format: cell-based, Sprague Dawley rats
Description: Twelve well tissue culture grade plates were covered with 250 μl of Matrigel and allowed to gel for 30-45 min at 370 C, 5% Co2. Thoracic aortas were excised from eight to ten week old male Sprague Dawley rats and the fibroadipose tissue was removed. The aortas were sectioned into 1 mm long sections, rinsed eight times with EGM-2 (Clonetics Corp), placed on the Matrigel coated wells, covered with additional 250 μl Matrigel, and allowed to gel for 30-45 min at 370 C. The rings were cultured for 24 hours in 2 ml of EGM-2. After 24 hours, recombinant murine endostatin was reconstituted in EBM and added as a single treatment on day 1. Thalidomide was added at different concentrations (1 μg/ml, 5 μg/ml, 10 μg/ml, 50 μg/ml and 100 μg/ml) in the presence or absence of rabbit microsomes as noted in the Table 5. Aortic rings were photographed on days.

Compound: O=C1CCC(N2C(=O)c3ccccc3C2=O)C(=O)N1 (centres unmarked) [Thalomid, thalidomide, reference compound]
- mean microvessel growth (% of control) (10 μg/ml, + Rabbit microsomes): 16.6 % of control
- mean microvessel growth (% of control) (10 μg/ml, without microsomes): 60 % of control
- mean microvessel growth (% of control) (50 μg/ml, + Rabbit microsomes): 17.6 % of control
- mean microvessel growth (% of control) (50 μg/ml, without microsomes): 82 % of control
- need of rabbit microsomes for inhibition of vessel formation (summary of Table 5): requires the addition of rabbit microsome in order to show efficient inhibition of vessel formation

Source: patent US20050148034A1, “Methods for identification of modulators of angiogenesis, compounds discovered thereby, and methods of treatment using the compounds” (priority 2002, published 2005)
